These results are taken from patent publication US11780826B2 (Amgen Inc., priority 2017, dated 2023).

The test system of this assay is Bovine cardiac myofibrils. The assay is described as follows: In vitro model of dose-dependent myofibril ATPase modulation (AC1.4, pyruvate kinase/lactate dehydrogenase-coupled ATPase assay at pCa25). The settings on record: concentration at which ATPase activity was 1.4-fold higher than the bottom of the dose curve, mean of a minimum of two independent tests. The class given is biochemical. In outline: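 ATP turnover tracked as NADH absorbance loss at 340 nm, coupled via pyruvate kinase/lactate dehydrogenase, with 1 mM ATP, 2 mM MgCl2 and 12 mM K-PIPES at pH 6.80 (22° C) under EGTA/CaCl2 calcium buffering. Substrate was detergent-treated bovine cardiac myofibrils; 4-parameter curve fit, AC1.4 averaged over at least two runs.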
The compound `CS(=O)(=O)c1cccc(C(=O)N2[C@@H](C(=O)N[C@@H](c3ccc(Cl)cc3F)C3COC3)C[C@H]3C[C@H]32)c1` [Example 207, (1R,3R,5R)-N-((R)-(4-chloro-2-fluorophenyl)(3-oxetanyl)methyl)-2-(3-(methylsulfonyl)benzoyl)-2-azabicyclo[3.1.0]hexane-3-carboxamide] had an AC1.4 of 0.4436 µM.
The figure for `COc1ccc(CNC(=O)[C@H]2CCCN2C(=O)[C@H]2CCCN(S(=O)(=O)N3CC(C#N)C3)C2)c(C)c1` [Example 614, 1-(((3S)-1-((3-cyano-1-azetidinyl)sulfonyl)-3-piperidinyl)carbonyl)-N-(4-methoxy-2-methylbenzyl)-D-prolinamide] is 3.8655 µM; for `N#CC1CN(S(=O)(=O)N2CCC[C@H](C(=O)N3CCC[C@@H]3C(=O)NC3CCC3C(F)(F)F)C2)C1` (stereo partly drawn) [Example 799, (2R)-1-((S)-1-((3-cyanoazetidin-1-yl)sulfonyl)piperidine-3-carbonyl)-N-(2-(trifluoromethyl)cyclobutyl)pyrrolidine-2-carboxamide] it is 9.4535 µM; for `NS(=O)(=O)c1cccc(C(=O)N2CC(F)(F)C[C@@H]2C(=O)N[C@@H](c2ccc(C(F)(F)F)cc2F)C2CC2)c1` [Example 446, N-((R)-cyclopropyl(2-fluoro-4-(trifluoromethyl)phenyl)methyl)-4,4-difluoro-1-(3-sulfamoylbenzoyl)-D-prolinamide] it is 1.826 µM.
The figure for `COC1CCN(S(=O)(=O)c2cccc(C(=O)N3CCC[C@@H]3C(=O)NCc3ccc(C(F)(F)F)cc3)c2)CC1` [Example 474, 1-((3-((4-methoxy-1-piperidinyl)sulfonyl)phenyl)carbonyl)-N-(4-(trifluoromethyl)benzyl)-D-prolinamide] is 2.036 µM; for `N#CC1CN(S(=O)(=O)c2cccc(C(=O)N3CC(F)(F)C[C@@H]3C(=O)NCc3ccc(C(F)(F)F)cc3)c2)C1` [Example 8, 1-((3-((3-cyano-1-azetidinyl)sulfonyl)phenyl)carbonyl)-4,4-difluoro-N-(4-(trifluoromethyl)benzyl)-D-prolinamide] it is 0.0198 µM; for `O=C(N[C@@H](c1ccc(C(F)(F)F)cc1F)C1CC1)[C@H]1CCCN1C(=O)c1cccc(C2(F)CN(S(=O)(=O)C3CC3)C2)c1` [Example 247, N-((R)-cyclopropyl(2-fluoro-4-(trifluoromethyl)phenyl)methyl)-1-(3-(1-(cyclopropylsulfonyl)-3-fluoro-3-azetidinyl)benzoyl)-D-prolinamide] it is 0.5868 µM.
The same measure for `O=C(N[C@@H](c1ccc(C(F)(F)F)cc1F)C1CC1)[C@H]1C[C@H]2C[C@H]2N1C(=O)c1cncc(C(F)(F)F)c1` [Example 680, (1R,3R,5R)-N-((R)-cyclopropyl(2-fluoro-4-(trifluoromethyl)phenyl)methyl)-2-((5-(trifluoromethyl)-3-pyridinyl)carbonyl)-2-azabicyclo[3.1.0]hexane-3-carboxamide]: 5.0333 µM; for `CS(=O)(=O)c1cccc(C(=O)N2CCCC[C@@H]2C(=O)N[C@@H](c2ccc(C(F)F)cc2F)C2CC2)c1` [Example 578, (2R)-N-((R)-cyclopropyl(4-(difluoromethyl)-2-fluorophenyl)methyl)-1-(3-(methylsulfonyl)benzoyl)-2-piperidinecarboxamide]: 3.3475 µM; for `N#CC1CN(S(=O)(=O)n2cc(C(=O)N3CCC[C@@H]3C(=O)NCc3ccc(C(F)(F)F)cc3)cn2)C1` [Example 123, 1-((1-((3-cyano-1-azetidinyl)sulfonyl)-1H-pyrazol-4-yl)carbonyl)-N-(4-(trifluoromethyl)benzyl)-D-prolinamide]: 0.189 µM.
The compound `N#CC1CN(S(=O)(=O)N2CCC[C@H](C(=O)N3CCC[C@@H]3C(=O)N[C@@H](CO)c3ccc(C(F)(F)F)cc3)C2)C1` [Example 561, 1-(((3S)-1-((3-cyano-1-azetidinyl)sulfonyl)-3-piperidinyl)carbonyl)-N-((1R)-2-hydroxy-1-(4-(trifluoromethyl)phenyl)ethyl)-D-prolinamide] registered an AC1.4 of 2.9935 µM.
`O=C(NCc1ccc(C(F)(F)F)cc1)[C@H]1CCCN1C(=O)[C@H]1CCCN(S(=O)(=O)N2CC(Oc3ccncc3)C2)C1` [Example 580, 1-(((3S)-1-((3-(4-pyridinyloxy)-1-azetidinyl)sulfonyl)-3-piperidinyl)carbonyl)-N-(4-(trifluoromethyl)benzyl)-D-prolinamide] had an AC1.4 of 3.3545 µM.
For the compound `N#CC1CN(S(=O)(=O)c2cccc(C(=O)N3CCC[C@@H]3C(=O)N[C@@H](CO)c3ccc(Cl)cc3)c2)C1` [Example 305, N-((1R)-1-(4-chlorophenyl)-2-hydroxyethyl)-1-(3-((3-cyano-1-azetidinyl)sulfonyl)benzoyl)-D-prolinamide], the AC1.4 came to 0.8013 µM.
The figure for `N#CC1CN(S(=O)(=O)N2CCC[C@H](C(=O)N3CCC[C@@H]3C(=O)NCc3ccc(F)cc3Cl)C2)C1` [Example 284, N-(2-chloro-4-fluorobenzyl)-1-(((3S)-1-((3-cyano-1-azetidinyl)sulfonyl)-3-piperidinyl)carbonyl)-D-prolinamide] is 0.7331 µM; for `CCC1(O)CN(S(=O)(=O)N2CCC[C@H](C(=O)N3CCC[C@@H]3C(=O)NCc3ccc(C(F)(F)F)cc3F)C2)C1` [Example 509, 1-(((3S)-1-((3-ethyl-3-hydroxy-1-azetidinyl)sulfonyl)-3-piperidinyl)carbonyl)-N-(2-fluoro-4-(trifluoromethyl)benzyl)-D-prolinamide] it is 2.3995 µM.
The same measure for `N#CC1CN(S(=O)(=O)N2CCN[C@H](C(=O)N3CCC[C@@H]3C(=O)NCc3ccc(Cl)c(Cl)c3)C2)C1` [Example 257, 1-(((2S)-4-((3-cyano-1-azetidinyl)sulfonyl)-2-piperazinyl)carbonyl)-N-(3,4-dichlorobenzyl)-D-prolinamide]: 0.6321 µM; for `CCNc1cnc(C)cc1C(=O)N1[C@@H](C(=O)N[C@@H](c2ccc(C(F)(F)F)cc2F)C2CC2)C[C@H]2C[C@H]21` [Example 383, (1R,3R,5R)-N-((R)-cyclopropyl(2-fluoro-4-(trifluoromethyl)phenyl)methyl)-2-((5-(ethylamino)-2-methyl-4-pyridinyl)carbonyl)-2-azabicyclo[3.1.0]hexane-3-carboxamide]: 1.2725 µM.
`Cc1ccc(CNC(=O)[C@H]2CCCN2C(=O)[C@H]2CCCN(S(=O)(=O)N3CC(C#N)C3)C2)cc1` [Example 243, 1-(((3S)-1-((3-cyano-1-azetidinyl)sulfonyl)-3-piperidinyl)carbonyl)-N-(4-methylbenzyl)-D-prolinamide] yielded an AC1.4 of 0.5746 µM.
The figure for `N#CC1CN(S(=O)(=O)c2cccc(C(=O)N3CCC[C@@H]3C(=O)NCc3cccc(C(F)(F)F)n3)c2)C1` [Example 655, 1-((3-((3-cyano-1-azetidinyl)sulfonyl)phenyl)carbonyl)-N-((6-(trifluoromethyl)-2-pyridinyl)methyl)-D-prolinamide] is 4.5443 µM; for `CS(=O)(=O)c1cccc(C(=O)N2C[C@@H](C(F)F)C[C@@H]2C(=O)N[C@@H](c2ccc(C(F)(F)F)cc2F)C2CC2)c1` [Example 656, (4S)-N-((R)-cyclopropyl(2-fluoro-4-(trifluoromethyl)phenyl)methyl)-4-(difluoromethyl)-1-(3-(methylsulfonyl)benzoyl)-D-prolinamide] it is 4.071 µM.
In turn, `CS(=O)(=O)c1ccnc(C(=O)N2[C@@H](C(=O)N[C@@H](c3cc(F)c(Cl)cc3F)C3CC3)C[C@H]3C[C@H]32)c1` [Example 202, (1R,3R,5R)-N-((R)-(4-chloro-2,5-difluorophenyl)(cyclopropyl)methyl)-2-((4-(methylsulfonyl)-2-pyridinyl)carbonyl)-2-azabicyclo[3.1.0]hexane-3-carboxamide] displayed an AC1.4 of 0.4116 µM.
Turning to `CC(C)[C@@H](NC(=O)[C@H]1CCCN1C(=O)c1cccc(S(=O)(=O)N2CC(C#N)C2)c1)c1ccc(C(F)(F)F)cc1F` [Example 10, 1-(3-((3-cyano-1-azetidinyl)sulfonyl)benzoyl)-N-((1R)-1-(2-fluoro-4-(trifluoromethyl)phenyl)-2-methylpropyl)-D-prolinamide], the AC1.4 turned out to be 0.02115 µM.
The same measure for `N#C[C@H]1CCN(S(=O)(=O)N2CCC[C@H](C(=O)N3CCC[C@@H]3C(=O)NCc3ccc(C(F)(F)F)cc3)C2)C1` [Example 192, 1-(((3S)-1-(((3S)-3-cyano-1-pyrrolidinyl)sulfonyl)-3-piperidinyl)carbonyl)-N-(4-(trifluoromethyl)benzyl)-D-prolinamide]: 0.3628 µM.
The same measure for `N#CC1CN(S(=O)(=O)N2CCC[C@H](C(=O)N3CCC[C@@H]3C(=O)N[C@H](c3ccc(C(F)(F)F)cc3)C3CC3)C2)C1` [Example 107, 1-(((3S)-1-((3-cyano-1-azetidinyl)sulfonyl)-3-piperidinyl)carbonyl)-N-((S)-cyclopropyl(4-(trifluoromethyl)phenyl)methyl)-D-prolinamide]: 0.1642 µM; for `C[C@@H](NC(=O)[C@H]1CCCN1C(=O)[C@H]1CCCN(S(=O)(=O)N2CC(C#N)C2)C1)c1ccc(C(F)F)cc1` [Example 248, 1-(((3S)-1-((3-cyano-1-azetidinyl)sulfonyl)-3-piperidinyl)carbonyl)-N-((1R)-1-(4-(difluoromethyl)phenyl)ethyl)-D-prolinamide]: 0.5915 µM; for `O=C(NCc1ccc(C(F)(F)F)cc1)[C@H]1CCCN1C(=O)[C@H]1CCCN(S(=O)(=O)N2CC(Cc3ccc(Cl)cc3)C2)C1` [Example 699, 1-(((3S)-1-((3-(4-chlorobenzyl)-1-azetidinyl)sulfonyl)-3-piperidinyl)carbonyl)-N-(4-(trifluoromethyl)benzyl)-D-prolinamide]: 5.5865 µM.
